Earlier results on 3 molecules are cited in patent US20080075658A1, “Method of Radiolabeling Formulations for Gamma Scintigraphy Assessment” (priority 2006, published 2008).

For the data set the following is noted: radioactive decay of the radionuclide.

On to `[Tc]` [Example 99mTc, technetium], for which the half life was 6.01 h.

In the case of `[Cl-].[Cl-].[Cl-].[In+3]` [InCl2, indium chloride], the half life entry is “InCl2 half life is 67.2 hrs” and the half-life was 67.2 h. Turning to `[O-2].[O-2].[O-2].[Sm+3].[Sm+3]` [Sm2O3, samarium oxide], the half life was 46.27 h.

In general, half-life refers to the time in which the quantity being followed falls by half.
